Data from patent publication US20170165259A1, “COMBINED MODULATION OF IRE1” (THE REGENTS OF THE UNIVERSITY OF CALIFORNIA, priority 2014, published 2017).

What was measured:
[1] = tested on: IRE1α mutants that lack kinase activity; details: cited from earlier work
endogenous IRE1α [2] = assay: IRE1α auto-phosphorylation immunoblot in INS-1 cells under ER stress; format: cell-based, rat
Description: (§1) FIGS. 5A-5E. […] (FIG. 5C) EtBr-stained agarose gel of XBP1 complementary DNA (cDNA) amplicons from the INS-1 cells described in (B).
(§2) To further explore how IRE1α modulators affect the kinase and RNase activities of endogenous IRE1α under ER stress, in vivo studies using INS-1 rat insulinoma cell lines, which are derived from insulin-producing pancreatic β-cell tumors and contain large well-developed ERs, were conducted.
For protein analysis, cells were lysed in M-PER buffer (Thermo Scientific) plus complete EDTA-free protease inhibitor (Roche) and phosphatase inhibitor cocktail (Sigma). The concentration of samples was determined using BCA Protein Assay (Thermo). […] Gels were run using MES buffer and transferred onto nitrocellulose transfer membrane using an XCell II™ Blot Module. Blocking, antibody incubation, and washing were done in PBS or TBS with 0.05% Tween-20 (v/v) and 5% (w/v) non-fat dry milk or BSA, or blocking buffer (Licor-Odyssey). Antibodies used were: mouse anti-Actin (Sigma-Aldrich); rabbit anti-cleaved Caspase-2 (Abcam); mouse anti-GAPDH, anti-c-Myc, anti-rabbit, anti-proinsulin, and anti-IRE1α (Santa Cruz Biotechnology); anti-phospho-IRE1α and anti-full length Caspase-2 (Novus Biologicals); and rabbit anti-Caspase-3, anti-JNK, anti-eIF2a, anti-phospho-eIF2a, and mouse anti-phospho-JNK (Cell Signaling). Antibody binding was detected by using near-infrared-dye-conjugated secondary antibodies (Licor) on the LI-COR Odyssey scanner or visualized by capturing on a CL-XPosure film using ECL SuperSignal West Dura Extended Duration Substrate (both from Thermo Scientific).

endogenous IRE1α [3] = assay: XBP1 mRNA splicing in INS-1 cells under ER stress; format: cell-based, rat
Description: as §1, §2

IRE1α* [4] = target: T1, IRE1α* (Homo sapiens, UniProt O75460); assay: DSS crosslinking, oligomer/monomer ratio of IRE1α*; format: biochemical; details: saturating inhibitor, DSS crosslinker
T1 construct: human IRE1α (residues 469-977, IRE1α*); made in house; host or cells: SF9 insect cells, Bac-to-Bac baculovirus

IRE1α* [5] = target: T1, IRE1α*; assay: ICAT cysteine footprinting (alkylation rates); format: binding; details: inhibitor 20 μM
Text: FIGS. 3A-3D. Characterization of GP146's interaction with the ATP-binding site of IRE1α. (FIG. 3A) A crystal structure of the kinase domain of human IRE1α bound to ADP; the native cysteine residues that were monitored using the ICAT footprinting method are labeled and shown as thick rods and the DFG-motif is shown as thin bars; cys715 is part of the hinge region of IRE1α and its side chain partially occupies the ATP-binding site; cys645 is in the activation loop, two residues away from the DFG-motif; cys572 is located on the top of the N-terminal lobe of the catalytic domain and is distant from the ATP-binding site.
As Cys645 and Cys715 are located within the ATP-binding cleft of IRE1α, the accessibility of these residues would be expected to be affected by ligands that occupy this site, while Cys572 is a solvent-exposed residue located on the top of the N-terminal lobe of the kinase.

IRE1α* [6] = target: T1, IRE1α*; assay: IRE1α* autophosphorylation kinase assay in vitro; format: biochemical
IRE1α* (P830L) = target: T2, IRE1α* (P830L) (Homo sapiens, UniProt O75460, P830L); assay: IRE1α* (P830L) cancer mutant: kinase, RNase, oligomeric state in vitro; format: biochemical
T2 construct: human IRE1α (residues 469-977, IRE1α*) or equivalent IRE1α mutants; made in house; host or cells: SF9 insect cells, Bac-to-Bac baculovirus
Text: Compared to IRE1α* (WT), IRE1α* (P830L) has reduced kinase activity, as the full-length protein does in vivo. […] IRE1α* (P830L) cannot cleave a FRET-quenched XBP1 RNA mini-substrate (Han et al., 2009), consistent with reduced RNase activity in vivo.
A construct containing the cytosolic kinase and RNase domains of human IRE1α (residues 469-977, IRE1α*) or equivalent IRE1α mutants was expressed in SF9 insect cells using the Bac-to-Bac baculovirus expression system (Invitrogen) as described (Wang et al., 2012). […] (NEB)-treated dephosphorylated IRE1α* (dP-IRE1α*) was also prepared and all the crosslinking experiments were performed as described (Wang et al., 2012). The RNase assay using 5′FAM-3′BHQ-labeled XBP1 single stem-loop minisubstrate (5′FAM-[…]-3′BHQ, from Dharmacon) (SEQ ID NO:22), and the IRE1α*auto-phosphorylation kinase assay were both done as described (Wang et al., 2012). The ability of KIRA6 to inhibit the catalytic activity of Erk2, JNK2, JNK3, PKA, and Piml was determined using previously reported assay conditions (Hill et al., 2012). Internally ^32P-labelled RNAs (mouse XBP1 RNA and Ins2 RNA, as described in (Han et al., 2009), and rat rhodopsin mRNA) were also used as substrates. For time-course determination, IRE1α* proteins (16 nM) were incubated with or without 10 μM 1NM-PP1 for 20 min prior to addition of 20 nM radio-labeled RNAs. Reactions were quenched by addition of 4 M urea at different time points and then were subjected to urea 6% PAGE analysis. […] The cleavage buffer and general manipulation are the same as described (Wang et al., 2012). cDNA for rat rhodopsin was purchased from Invitrogen and amplified by PCR using primers: 5′-[…]-3′ (forward) (SEQ ID NO:23) and 5′-[…]-3′ (reverse) (SEQ ID NO:24). RNA was in vitro transcribed, cleaved by IRE1α*, and the cleavage sites mapped as described (Wang et al., 2012).

IRE1α* [7] = target: T1, IRE1α*; assay: XBP1 RNA minisubstrate (FRET-quenched) RNase assay; format: biochemical; details: for IRE1α* RNase activity (XBP1 RNA cleavage), effect in words: in vitro
dP-IRE1α* = target: T3, dP-IRE1α* (Homo sapiens, UniProt O75460); assay: XBP1 RNA minisubstrate RNase assay with dephosphorylated IRE1α*; format: biochemical; details: of the levels of IRE1α*; increasing APY29
T3 construct: human IRE1α (residues 469-977, IRE1α*); made in house; host or cells: SF9 insect cells, then λ-phosphatase (NEB) treatment
Text: Reactions were quenched by addition of 4 M urea at different time points and then were subjected to urea 6% PAGE analysis.

yeast and murine IRE1α = details: cited from earlier work
[8] = Compound toxicity / proliferative blocks in cells; format: cell-based
[9] = tested on: panel of kinases (Src, Abl); assay: Counter-screen against a panel of kinases; format: biochemical; details: 12 kinases in this panel
IRE1α* [10] = target: T1, IRE1α*; assay: IRE1α* kinase assay (96-well dot blot, 32γ-ATP, STK peptide substrate 2); format: biochemical
Description: FIGS. 16A-16C. Divergent modulation of IRE1α RNase activity using distinct classes of kinase inhibitors. (FIG. 16A) KIRA6 inhibition of IRE1α* kinase activity. IC50 values determined by fitting percent kinase activity (n=3); Urea PAGE of competition cleavage by IRE1α* of XBP1 RNA mini-substrate (FIG. 16B) and α^32P-labeled Ins2 RNA (FIG. 16C), under indicated [KIRA6]; IC50s determined by fitting in-gel fluorescence intensities (XBP1) and phosphorimager (Ins2).
KIRAs are tested for ability to inhibit IRE1α* kinase and RNase activities in vitro. The XBP1 minisubstrate assay shown in FIGS. 1B-1C, is amenable to 96- or 384-well format, and is used to determine RNase IC50s. In parallel, kinase IC50s for all KIRAs are determined in a 96-well dot blot assay with 32γ-ATP and STK peptide substrate 2 as substrates. Time-dependence of inhibition is determined for all electrophile-containing KIRAs. RNase and kinase assays have been used to profile the KIRAs in FIG. 13, showing a strong correlation between kinase and RNase IC50s. […] Thus, the structure-based design strategy uses these two kinases as counter targets (described below).

[11] = varying concentration of the tested inhibitor

T1 sequence (O75460 469-977): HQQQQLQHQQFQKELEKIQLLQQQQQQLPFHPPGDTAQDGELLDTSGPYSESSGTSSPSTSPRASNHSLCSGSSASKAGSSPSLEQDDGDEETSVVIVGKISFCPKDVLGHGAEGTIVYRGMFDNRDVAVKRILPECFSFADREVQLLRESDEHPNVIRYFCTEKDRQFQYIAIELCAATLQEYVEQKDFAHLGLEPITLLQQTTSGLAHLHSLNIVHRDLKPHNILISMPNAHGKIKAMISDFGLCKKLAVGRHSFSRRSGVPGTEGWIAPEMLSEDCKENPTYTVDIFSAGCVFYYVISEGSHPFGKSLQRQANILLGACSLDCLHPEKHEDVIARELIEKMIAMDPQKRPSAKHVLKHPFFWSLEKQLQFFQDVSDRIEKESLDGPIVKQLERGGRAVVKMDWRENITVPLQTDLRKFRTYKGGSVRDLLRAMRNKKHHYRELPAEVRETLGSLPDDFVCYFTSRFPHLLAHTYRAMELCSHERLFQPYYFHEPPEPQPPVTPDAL
T2 sequence (O75460 469-977 P830L): as the sequence (O75460 469-977) above, with P362L counted along it
T3 sequence (O75460 469-977): as the sequence (O75460 469-977) above

In the case of `CC(C)(C)n1nc(Cc2cccc3ccccc23)c2c(N)ncnc21` [1NM-PP1], the “RNase activity of kinase-inactive IRE1α mutants” value [1] is given as “able to rescue the RNase activity of IRE1α mutants that lack kinase activity”.
For `CNc1nccn2c(C(C)(C)C)nc(-c3ccc(NC(=O)Nc4cccc(C(F)(F)F)c4)c4ccccc34)c12` [(NMe)KIRA6, 1-(4-(8-methylamino-3-tert-butylimidazo[1,5-a]pyrazin-1-yl)naphthalen-1-yl)-3-(3-(trifluoromethyl)phenyl)urea], the “endogenous IRE1α auto-phosphorylation in INS-1 cells” value (endogenous IRE1α [2]; by Tg, compound at 10 μM) was “inhibits neither output” and the “XBP1 mRNA splicing in INS-1 cells” value (endogenous IRE1α [3]; by Tm, compound at 10 μM) was “inhibits neither output”.
With `c1cc(Nc2cc(C3CC3)[nH]n2)nc(Nc2ccc3nc[nH]c3c2)n1` [APY29] the “IRE1α* oligomerization (oligomer/monomer ratio)” value (IRE1α* [4]) was “further enhances”, the “accessibility of Cys572” value (IRE1α* [5]) was “no detectable difference” and the “accessibility of Cys645 to alkylating agents” value (IRE1α* [5]) was “highly shielded from alkylating agents”. The “accessibility of Cys715 (rate of alkylation)” value (IRE1α* [5]) was “slowing the rate of alkylation”, the IC50 (IRE1α* [6]) was 280 nM and the “RNase activity of IRE1α* (P830L)” value (IRE1α* (P830L)) was “partially rescue RNase activity”. For the same compound, the “autophosphorylation by IRE1α* (P830L)” value (IRE1α* (P830L)) was “suppresses residual autophosphorylation”, the “oligomeric state of IRE1α* (P830L)” value (IRE1α* (P830L)) was “increases IRE1α* (P830L)'s oligomeric state” and the “IRE1α* RNase activity (XBP1 RNA cleavage), effect in words” value (“IRE1α* RNase activity” for short) (IRE1α* [7]) was “acting as an activator”. For the same compound, the “RNase competition, IRE1α* under fixed KIRA3 (GP146)” value (IRE1α* [7]; [11]) was “progressively reverse IRE1α* RNase inhibition caused by a fixed concentration of KIRA3”, the “RNase competition, IRE1α* under fixed STF-083010” value (IRE1α* [7]; [11]) was “cannot rescue direct inhibition caused by the covalent RNase modifier STF-083010” and the “dP-IRE1α* cleavage of XBP1 mini-substrate restored, plateau” value (dP-IRE1α*) was ~60%. The “RNase of yeast and murine IRE1α” value (yeast and murine IRE1α) was “directly activate the RNase of yeast and murine IRE1α” and the toxicity in cells [8] was “pleiotropic toxicity, including proliferative blocks at low micromolar concentrations”.
For `CC(C)c1nc(-c2ccc(NC(=O)c3cccc(C(F)(F)F)c3)c3ccccc23)c2c(N)nccn12` [GP146(Am), N-(4-(8-amino-3-isopropylimidazo[1,5-a]pyrazin-1-yl)naphthalen-1-yl)-3-(trifluoromethyl)benzamide], the “IRE1α* RNase activity” value (IRE1α* [7]) was “markedly diminished ability to inhibit the RNase activity of IRE1α compared to GP146”.
With `CNc1nccn2c(C(C)C)nc(-c3ccc(NC(=O)Nc4cccc(C(F)(F)F)c4)c4ccccc34)c12` [GP146(NMe), 1-(4-(3-isopropyl-8-(methylamino)imidazo[1,5-a]pyrazin-1-yl)naphthalen-1-yl)-3-(3-(trifluoromethyl)phenyl)urea] the “XBP1 mRNA splicing (IRE1α RNase activity) in INS-1 cells” value (endogenous IRE1α [3]; thapsigargin (Tg) 6 nM) was “does not block the splicing of XBP1 mRNA” and the “IRE1α* RNase activity” value (IRE1α* [7]) was “markedly diminished ability to inhibit the RNase activity of IRE1α compared to GP146”.
With `CC(C)c1nc(-c2ccc(NC(=O)Nc3cccc(C(F)(F)F)c3)cc2)c2c(N)nccn12` [KIRA2, 1-(4-(8-amino-3-isopropylimidazo[1,5-a]pyrazin-1-yl)phenyl)-3-(3-(trifluoromethyl)phenyl)urea] the “IRE1α* RNase activity” value (IRE1α* [7]) was “significant increase in overall potency”.
For `CC(C)c1nc(-c2ccc(NC(=O)Nc3cccc(C(F)(F)F)c3)c3ccccc23)c2c(N)nccn12` [KIRA3, 1-(4-(8-amino-3-isopropylimidazo[1,5-a]pyrazin-1-yl)naphthalen-1-yl)-3-(3-(trifluoromethyl)phenyl)urea], the “endogenous IRE1α auto-phosphorylation in INS-1 cells” value (endogenous IRE1α [2]; ER stress (Tg)) was “abrogates IRE1α autophosphorylation” and the “off-target inhibition in kinase panel” value [9] was “the only off-target inhibition observed is for the tyrosine kinases Src and Abl”.
In the case of `CC(C)(C)c1nc(-c2ccc(NC(=O)Nc3cccc(F)c3)c3ccccc23)c2c(N)nccn12` [KIRA7], the IC50 (IRE1α* [7]; IRE1α*) is reported as < 30 nM and the IC50 (IRE1α* [10]) is reported as 35 nM.
